In article PMC7206119, “RIP1 inhibition blocks inflammatory diseases but not tumor growth or metastases” (Cell Death and Differentiation, 2019):

Assays:
Test in all cases: biochemical
Set-up in all cases: DiscoverX kinase panel, active-site competition binding (KINOMEscan type), percent of control at one concentration
Details in all cases: competition binding, percent of control
NEK5 = NEK5 (Homo sapiens, UniProt Q6P3R8)
TIE1 = TIE1 (Homo sapiens, UniProt P35590)
RIPK5 = target: T1, RIPK5 (Homo sapiens, UniProt Q6XUX3)
T1 construct: gene DSTYK

EPHA5 = EPHA5 (Homo sapiens, UniProt P54756)
MARK2 = MARK2 (Homo sapiens, UniProt Q7KZI7)
ADCK4 = target: T2, ADCK4 (Homo sapiens, UniProt Q96D53)
T2 construct: gene COQ8B

MYO3B = MYO3B (Homo sapiens, UniProt Q8WXR4)
MYO3A = MYO3A (Homo sapiens, UniProt Q8NEV4)
KIT(V559D,T670I) = KIT(V559D,T670I) (Homo sapiens, UniProt P10721, T670I/V559D)
ALK(L1196M) = ALK(L1196M) (Homo sapiens, UniProt Q9UM73, L1196M)
KIT(A829P) = KIT(A829P) (Homo sapiens, UniProt P10721, A829P)
BLK = BLK (Homo sapiens, UniProt P51451)
MAK = MAK (Homo sapiens, UniProt P20794)
FLT4 = FLT4 (Homo sapiens, UniProt P35916)
MEK3 = target: T3, MEK3 (Homo sapiens, UniProt P46734)
T3 construct: gene MAP2K3

FLT3(ITD) = FLT3(ITD) (Homo sapiens, UniProt P36888, ITD)
WEE2 = WEE2 (Homo sapiens, UniProt P0C1S8)
PLK3 = PLK3 (Homo sapiens, UniProt Q9H4B4)
MTOR = MTOR (Homo sapiens, UniProt P42345)
HCK = HCK (Homo sapiens, UniProt P08631)
PCTK2 = target: T4, PCTK2 (Homo sapiens, UniProt Q00537)
T4 construct: gene CDK17

KIT(V559D,T670I), sequence (P10721 whole entry V559D/T670I): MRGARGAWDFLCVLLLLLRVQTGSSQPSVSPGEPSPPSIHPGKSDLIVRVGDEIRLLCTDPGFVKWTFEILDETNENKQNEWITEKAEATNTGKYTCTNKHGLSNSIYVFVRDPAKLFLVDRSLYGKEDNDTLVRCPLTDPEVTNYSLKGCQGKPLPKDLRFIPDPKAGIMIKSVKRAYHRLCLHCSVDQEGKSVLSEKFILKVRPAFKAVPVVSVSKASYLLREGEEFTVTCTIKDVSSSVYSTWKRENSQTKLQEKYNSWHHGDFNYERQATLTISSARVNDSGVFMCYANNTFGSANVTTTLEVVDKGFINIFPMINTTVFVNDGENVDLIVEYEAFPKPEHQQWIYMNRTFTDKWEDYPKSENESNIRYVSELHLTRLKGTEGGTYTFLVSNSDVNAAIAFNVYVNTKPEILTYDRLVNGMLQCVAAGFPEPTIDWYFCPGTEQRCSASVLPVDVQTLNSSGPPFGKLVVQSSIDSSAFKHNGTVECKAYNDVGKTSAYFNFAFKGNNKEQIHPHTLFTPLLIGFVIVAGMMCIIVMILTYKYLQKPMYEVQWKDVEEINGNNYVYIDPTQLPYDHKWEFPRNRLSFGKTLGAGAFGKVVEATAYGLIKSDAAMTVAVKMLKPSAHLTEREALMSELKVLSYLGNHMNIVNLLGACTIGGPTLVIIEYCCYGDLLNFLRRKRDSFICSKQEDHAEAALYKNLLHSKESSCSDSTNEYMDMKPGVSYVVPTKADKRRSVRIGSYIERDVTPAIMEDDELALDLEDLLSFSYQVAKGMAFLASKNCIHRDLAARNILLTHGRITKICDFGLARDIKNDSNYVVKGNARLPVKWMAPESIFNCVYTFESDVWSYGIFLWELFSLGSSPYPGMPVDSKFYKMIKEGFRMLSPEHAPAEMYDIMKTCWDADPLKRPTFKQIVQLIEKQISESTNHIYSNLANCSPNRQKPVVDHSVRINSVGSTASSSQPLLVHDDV
T3 sequence (P46734 whole entry): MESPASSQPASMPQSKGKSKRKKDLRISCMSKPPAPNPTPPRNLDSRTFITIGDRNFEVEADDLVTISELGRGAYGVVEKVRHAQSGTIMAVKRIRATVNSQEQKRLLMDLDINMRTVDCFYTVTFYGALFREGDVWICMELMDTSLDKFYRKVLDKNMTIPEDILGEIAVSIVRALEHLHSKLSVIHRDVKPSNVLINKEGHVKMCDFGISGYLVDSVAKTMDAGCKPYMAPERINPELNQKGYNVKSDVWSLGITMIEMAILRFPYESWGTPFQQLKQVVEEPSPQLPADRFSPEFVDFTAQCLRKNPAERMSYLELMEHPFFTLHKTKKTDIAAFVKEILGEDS
T2 sequence (Q96D53 whole entry): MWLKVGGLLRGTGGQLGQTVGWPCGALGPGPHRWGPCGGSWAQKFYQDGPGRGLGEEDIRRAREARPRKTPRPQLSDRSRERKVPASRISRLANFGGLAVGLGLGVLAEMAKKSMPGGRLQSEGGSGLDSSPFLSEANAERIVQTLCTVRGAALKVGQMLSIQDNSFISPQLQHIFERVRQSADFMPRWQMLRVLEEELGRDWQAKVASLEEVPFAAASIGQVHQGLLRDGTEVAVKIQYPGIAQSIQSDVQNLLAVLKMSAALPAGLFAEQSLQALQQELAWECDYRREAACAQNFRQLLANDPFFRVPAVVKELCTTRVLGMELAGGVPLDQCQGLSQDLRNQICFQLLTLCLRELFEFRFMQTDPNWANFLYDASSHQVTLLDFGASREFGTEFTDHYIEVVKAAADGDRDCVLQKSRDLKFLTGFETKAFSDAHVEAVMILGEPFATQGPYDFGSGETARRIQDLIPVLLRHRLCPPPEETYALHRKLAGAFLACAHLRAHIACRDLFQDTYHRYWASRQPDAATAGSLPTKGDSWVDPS
FLT3(ITD), sequence (P36888 564-993, change not shown): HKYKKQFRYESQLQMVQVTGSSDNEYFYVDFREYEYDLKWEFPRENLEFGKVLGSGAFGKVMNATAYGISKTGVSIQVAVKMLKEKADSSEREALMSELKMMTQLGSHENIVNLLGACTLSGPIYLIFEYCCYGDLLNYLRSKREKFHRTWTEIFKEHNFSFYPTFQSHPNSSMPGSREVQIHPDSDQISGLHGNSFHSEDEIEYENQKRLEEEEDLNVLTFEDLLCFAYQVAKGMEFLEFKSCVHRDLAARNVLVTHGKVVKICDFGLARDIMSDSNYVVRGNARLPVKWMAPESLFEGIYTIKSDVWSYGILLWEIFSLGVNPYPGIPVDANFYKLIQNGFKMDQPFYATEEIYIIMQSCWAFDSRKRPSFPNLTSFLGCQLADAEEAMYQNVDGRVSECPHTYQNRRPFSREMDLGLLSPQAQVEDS
HCK, sequence (P08631 whole entry): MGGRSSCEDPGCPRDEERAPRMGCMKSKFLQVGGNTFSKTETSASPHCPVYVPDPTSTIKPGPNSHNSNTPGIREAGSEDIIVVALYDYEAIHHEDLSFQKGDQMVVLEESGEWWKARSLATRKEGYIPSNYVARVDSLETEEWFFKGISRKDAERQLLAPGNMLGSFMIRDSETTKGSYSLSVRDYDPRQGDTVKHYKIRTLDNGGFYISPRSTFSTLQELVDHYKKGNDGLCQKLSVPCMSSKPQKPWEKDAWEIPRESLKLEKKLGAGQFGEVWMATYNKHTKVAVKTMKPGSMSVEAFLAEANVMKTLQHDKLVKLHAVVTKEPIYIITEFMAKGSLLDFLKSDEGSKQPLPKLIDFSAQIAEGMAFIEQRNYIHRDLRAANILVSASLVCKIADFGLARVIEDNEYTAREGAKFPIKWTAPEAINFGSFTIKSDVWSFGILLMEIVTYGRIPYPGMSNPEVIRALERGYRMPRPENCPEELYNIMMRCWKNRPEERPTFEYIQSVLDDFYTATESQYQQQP
BLK, sequence (P51451 whole entry): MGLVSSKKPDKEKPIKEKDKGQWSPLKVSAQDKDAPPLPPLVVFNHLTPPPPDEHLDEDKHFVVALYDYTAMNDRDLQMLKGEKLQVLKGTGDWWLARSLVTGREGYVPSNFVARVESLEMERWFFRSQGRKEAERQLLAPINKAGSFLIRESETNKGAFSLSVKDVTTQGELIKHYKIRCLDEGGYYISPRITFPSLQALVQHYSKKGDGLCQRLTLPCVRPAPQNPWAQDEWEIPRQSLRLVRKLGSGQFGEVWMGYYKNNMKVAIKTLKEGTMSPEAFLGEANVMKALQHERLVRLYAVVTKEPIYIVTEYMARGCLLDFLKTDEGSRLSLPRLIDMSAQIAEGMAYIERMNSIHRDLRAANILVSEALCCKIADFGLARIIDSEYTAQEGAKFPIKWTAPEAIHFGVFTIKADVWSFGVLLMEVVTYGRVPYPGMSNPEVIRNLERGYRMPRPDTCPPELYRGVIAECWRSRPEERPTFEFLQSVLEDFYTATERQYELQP
MYO3B, sequence (Q8WXR4 whole entry): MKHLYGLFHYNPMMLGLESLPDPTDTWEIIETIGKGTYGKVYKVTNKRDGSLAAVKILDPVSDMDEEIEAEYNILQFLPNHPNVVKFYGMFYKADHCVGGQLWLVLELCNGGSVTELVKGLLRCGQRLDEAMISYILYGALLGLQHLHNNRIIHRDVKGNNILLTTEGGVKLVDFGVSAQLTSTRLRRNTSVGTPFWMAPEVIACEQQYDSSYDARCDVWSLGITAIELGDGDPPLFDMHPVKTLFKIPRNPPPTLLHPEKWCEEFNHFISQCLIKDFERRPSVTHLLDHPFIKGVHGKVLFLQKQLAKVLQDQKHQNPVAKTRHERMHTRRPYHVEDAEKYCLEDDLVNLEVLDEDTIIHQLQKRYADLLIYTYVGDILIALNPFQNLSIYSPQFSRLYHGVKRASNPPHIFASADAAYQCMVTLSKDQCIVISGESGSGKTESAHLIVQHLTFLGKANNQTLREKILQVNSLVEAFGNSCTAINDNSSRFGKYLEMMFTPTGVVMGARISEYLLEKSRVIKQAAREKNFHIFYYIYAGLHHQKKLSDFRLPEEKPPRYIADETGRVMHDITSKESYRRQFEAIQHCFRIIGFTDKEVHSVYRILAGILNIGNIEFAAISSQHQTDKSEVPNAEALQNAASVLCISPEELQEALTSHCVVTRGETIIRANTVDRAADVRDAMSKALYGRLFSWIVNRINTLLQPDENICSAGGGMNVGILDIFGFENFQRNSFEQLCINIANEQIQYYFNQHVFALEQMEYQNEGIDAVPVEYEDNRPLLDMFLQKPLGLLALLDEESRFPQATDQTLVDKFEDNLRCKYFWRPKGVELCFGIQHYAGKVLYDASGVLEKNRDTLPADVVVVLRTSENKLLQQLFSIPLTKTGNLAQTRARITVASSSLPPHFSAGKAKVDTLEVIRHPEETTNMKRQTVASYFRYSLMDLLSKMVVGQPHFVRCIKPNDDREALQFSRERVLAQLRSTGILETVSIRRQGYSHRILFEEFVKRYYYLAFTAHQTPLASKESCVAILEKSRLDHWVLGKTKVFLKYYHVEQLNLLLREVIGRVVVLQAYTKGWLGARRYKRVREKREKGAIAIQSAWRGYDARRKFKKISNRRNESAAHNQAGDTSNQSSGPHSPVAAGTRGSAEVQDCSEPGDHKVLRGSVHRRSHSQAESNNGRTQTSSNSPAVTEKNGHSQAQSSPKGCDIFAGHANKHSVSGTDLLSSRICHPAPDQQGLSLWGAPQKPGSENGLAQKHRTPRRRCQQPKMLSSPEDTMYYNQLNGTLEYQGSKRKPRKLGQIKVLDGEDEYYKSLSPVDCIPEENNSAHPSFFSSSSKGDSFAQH
KIT(A829P), sequence (P10721 whole entry A829P): as the sequence (P10721 whole entry V559D/T670I) above, with D559V, I670T, A829P counted along it

COc1cc2c(cn1)N(C)C(=O)[C@@H](NC(=O)c1nc3n(n1)[C@H](c1ccccc1)CC3)CC2 [GNE684, (S)-N-((S)-7-methoxy-1-methyl-2-oxo-2,3,4,5-tetrahydro-1H-pyrido[3,4-b]azepin-3-yl)-5-phenyl-6,7-dihydro-5H-pyrrolo[1,2-b][1,2,4]triazole-2-carboxamide]
remaining binding at 10 µM (NEK5): 100%
remaining binding at 10 µM (TIE1): 88%
remaining binding at 10 µM (RIPK5): 48%
remaining binding at 10 µM (EPHA5): 100%
remaining binding at 10 µM (MARK2): 100%
remaining binding at 10 µM (ADCK4): 100%
remaining binding at 10 µM (MYO3B): 89%
remaining binding at 10 µM (MYO3A): 95%
remaining binding at 10 µM (KIT(V559D,T670I)): 100%
remaining binding at 10 µM (ALK(L1196M)): 78%
remaining binding at 10 µM (KIT(A829P)): 100%
remaining binding at 10 µM (BLK): 49%
remaining binding at 10 µM (MAK): 96%
remaining binding at 10 µM (FLT4): 96%
remaining binding at 10 µM (MEK3): 87%
remaining binding at 10 µM (FLT3(ITD)): 100%
remaining binding at 10 µM (WEE2): 95%
remaining binding at 10 µM (PLK3): 89%
remaining binding at 10 µM (MTOR): 100%
remaining binding at 10 µM (HCK): 93%
remaining binding at 10 µM (PCTK2): 100%
